Results reported in US8211906B1, “Method of inhibiting growth of neoplastic cells and inhibiting infection by administering an immune enhancer drug” (priority 2003, dated 2012).
Values after ≈ are worked out from the molar mass of the structure shown.

Key:
[1] = physchem; conditions: water
[2] = aqueous solubility; conditions: pH 7.4, aqueous buffer
[3] = tested on: cutaneous metastatic melanoma; conditions: topical, under occlusion; cited from earlier work
[4] = tested on: mouse spleen cell cultures; conditions: cited from earlier work
[5] = cited from earlier work
[6] = tested on: spleen, bone marrow, liver, peritoneal exudates and alveolar macrophages; conditions: in vitro; cited from earlier work
[7] = cited from earlier work; remark: listed apart in the source
[8] = tested on: isolated human mononuclear cells; conditions: cited from earlier work
[9] = tested on: rhinovirus 1A; conditions: in vitro, cells infected with rhinovirus 1A; cited from earlier work
[10] = tested on: a number of different tumor cell types; conditions: mice implanted with tumor cells; cited from earlier work
[11] = topical; cited from earlier work
[12] = tested on: varicella zoster; conditions: in vitro, cells infected with varicella zoster; cited from earlier work
[13] = tested on: primary genital herpes; conditions: guinea pigs, single dose; cited from earlier work
[14] = cited from earlier work; remark: listed apart in the source
[15] = tested on: Rift Valley Fever virus; conditions: monkeys; cited from earlier work
[16] = tested on: respiratory syncytial virus; conditions: in vitro, cells infected with respiratory syncytial virus; cited from earlier work
[17] = tested on: Banzi virus; conditions: monkeys; cited from earlier work

## CC(C)(C)CC(=O)OCC(=O)[C@@]12OC(C)(C)O[C@@H]1C[C@H]1[C@@H]3CCC4=CC(=O)C=C[C@]4(C)[C@@]3(F)[C@@H](O)C[C@@]12C [Triamcinolone hexacetonide]
[1]
  solubility: 3.75 µM (≈ 2 µg/mL)

## CC(C)Cn1cnc2c(N)nc3ccccc3c21 [imiquimod, 1-(2-methylpropyl)-1H-imidazo[4,5-c]quinolin-4-amine]
[2]
  solubility: 4 µM (≈ 0.961 µg/mL)
[3]
  treatment of cutaneous metastatic melanoma: successfully treated
[4]
  concentration of maximum activity, induced proliferation: 1 µg/mL
[5]; oral administration
  systemic toxicity: significant systemic toxicity
[5]; topical administration of creams
  skin irritation: significant skin irritation
[6]
  time of cytokine induction after exposure: 1 to 2 h
  time of peak cytokine induction: 8 h
[7]; free base form
  solubility in water and common organic solvents: almost insoluble
[7]; physiologic pH
  solubility at physiologic pH: 1-2 μg/ml
[8]
  concentration of maximal interferon-alpha production: 3 µM
[9]
  plaque reduction: 50%
[10]
  anti-tumor effect: effective anti-tumor agent
[11]
  effect on contact allergy to dinitrochlorobenzene: enhanced contact allergy
[12]
  plaque reduction: 50%
[13]
  treatment of primary genital herpes infections: effectively treats
[14]; dermal administration
  systemic exposure: minimal
[14]; oral administration
  absorption: rapidly absorbed
[15]
  efficacy against Rift Valley Fever virus: effective
[16]
  plaque reduction: 50%
[17]
  efficacy against Banzi virus: effective
